From ChEMBL document CHEMBL4706551, “Rational design of new multitarget histamine H receptor ligands as potential candidates for treatment of Alzheimer's disease” (Eur J Med Chem, 2020)
pIC50, pKi: −log10 of the molar value. The source made the active and inactive calls.

Legend:
[1] = system: Rattus norvegicus; assay: Antiinflammatory activity against Wistar (Krf:WI) rat assessed as reduction in carragenan-induced paw edema at 30 mg/kg treated prior to carrageenan challenge and measured after 24 hrs by plethysmometry relative to control; type: functional
[2] = molecular target: Cholinesterase (Equus caballus, UniProt P81908)
Sequence of Cholinesterase (Equus caballus, UniProt P81908) (P81908 whole entry): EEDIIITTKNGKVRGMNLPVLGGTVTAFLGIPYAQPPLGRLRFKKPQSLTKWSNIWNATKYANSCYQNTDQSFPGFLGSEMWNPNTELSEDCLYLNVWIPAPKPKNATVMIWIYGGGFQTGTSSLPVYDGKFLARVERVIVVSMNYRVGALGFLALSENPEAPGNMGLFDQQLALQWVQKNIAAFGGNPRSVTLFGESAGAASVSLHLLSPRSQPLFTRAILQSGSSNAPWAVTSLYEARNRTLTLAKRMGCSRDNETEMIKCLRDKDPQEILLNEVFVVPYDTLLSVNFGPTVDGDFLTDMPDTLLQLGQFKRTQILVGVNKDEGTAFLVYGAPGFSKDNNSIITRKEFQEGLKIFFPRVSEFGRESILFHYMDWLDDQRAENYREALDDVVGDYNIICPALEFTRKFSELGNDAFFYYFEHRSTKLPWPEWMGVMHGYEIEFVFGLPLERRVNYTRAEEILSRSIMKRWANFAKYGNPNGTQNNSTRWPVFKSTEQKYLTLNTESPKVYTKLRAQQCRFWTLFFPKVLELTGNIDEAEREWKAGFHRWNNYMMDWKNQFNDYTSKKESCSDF
Description: Inhibition of equine serum BChE using BTCI as substrate incubated for 5 mins followed by substrate addition and measured after 5 mins by spectrophotometric based Ellman's method

[3] = system: Rattus norvegicus; assay: Antiinflammatory activity against Wistar (Krf:WI) rat assessed as reduction in carragenan-induced paw edema at 22.5 mg/kg treated prior to carrageenan challenge and measured after 6 hrs by plethysmometry relative to control; type: functional
[4] = molecular target: Acetylcholinesterase (Homo sapiens, UniProt P22303); assay: Inhibition of recombinant human AChE using ATCI as substrate incubated for 5 mins followed by substrate addition and measured after 5 mins by spectrophotometric based Ellman's method
Sequence of Acetylcholinesterase (Homo sapiens, UniProt P22303) (P22303 whole entry): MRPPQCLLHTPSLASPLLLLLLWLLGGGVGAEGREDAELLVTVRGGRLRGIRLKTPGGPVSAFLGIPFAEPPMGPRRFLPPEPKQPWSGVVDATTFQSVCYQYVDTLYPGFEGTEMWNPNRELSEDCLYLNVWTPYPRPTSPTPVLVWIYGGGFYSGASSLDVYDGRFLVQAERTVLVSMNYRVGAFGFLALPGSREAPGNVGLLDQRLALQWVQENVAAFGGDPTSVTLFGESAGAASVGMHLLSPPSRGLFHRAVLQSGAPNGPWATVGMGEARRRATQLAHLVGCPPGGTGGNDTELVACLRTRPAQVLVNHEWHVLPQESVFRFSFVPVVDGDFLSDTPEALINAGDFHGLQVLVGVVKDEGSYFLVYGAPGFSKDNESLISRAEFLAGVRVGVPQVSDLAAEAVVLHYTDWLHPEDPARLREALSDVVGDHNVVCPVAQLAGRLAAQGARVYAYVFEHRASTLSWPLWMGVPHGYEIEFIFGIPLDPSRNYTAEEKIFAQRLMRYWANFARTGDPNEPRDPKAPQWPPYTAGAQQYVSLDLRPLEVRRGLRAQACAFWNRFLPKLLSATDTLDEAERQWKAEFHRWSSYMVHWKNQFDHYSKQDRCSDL

[5] = system: Mus musculus; assay: Antiallodynic activity in oxaliplatin-induced peripheral neuropathy pain CD-1 mouse model assessed as inhibition of early-phase tactile allodynia by measuring pain sensitivity threshold administered with compound intraperitoneally at 3 hrs after oxaliplatin stimulation and measured after 30 mins by von Frey test; type: functional, organism-based; settings: dose 15-30 mg/kg
[6] = molecular target: Acetylcholinesterase (Electrophorus electricus, UniProt O42275)
Sequence of Acetylcholinesterase (Electrophorus electricus, UniProt O42275) (O42275 whole entry): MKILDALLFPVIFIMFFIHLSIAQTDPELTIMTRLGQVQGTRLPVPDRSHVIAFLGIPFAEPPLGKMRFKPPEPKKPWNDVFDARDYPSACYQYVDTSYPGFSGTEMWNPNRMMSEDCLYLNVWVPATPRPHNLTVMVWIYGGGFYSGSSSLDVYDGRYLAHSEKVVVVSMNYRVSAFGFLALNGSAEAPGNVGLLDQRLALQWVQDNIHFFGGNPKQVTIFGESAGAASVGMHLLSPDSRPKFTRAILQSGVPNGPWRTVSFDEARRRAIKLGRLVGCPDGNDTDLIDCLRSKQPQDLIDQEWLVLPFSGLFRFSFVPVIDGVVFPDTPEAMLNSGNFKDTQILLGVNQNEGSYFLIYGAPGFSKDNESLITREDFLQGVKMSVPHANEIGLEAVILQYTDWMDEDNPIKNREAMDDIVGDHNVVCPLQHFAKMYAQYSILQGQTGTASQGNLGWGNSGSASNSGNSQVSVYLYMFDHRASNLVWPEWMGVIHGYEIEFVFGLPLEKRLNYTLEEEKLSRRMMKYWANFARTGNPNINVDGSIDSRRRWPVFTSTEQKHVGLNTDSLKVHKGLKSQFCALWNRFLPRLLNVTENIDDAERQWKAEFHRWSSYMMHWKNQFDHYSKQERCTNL
Description: Inhibition of Electric eel AChE using ATCI as substrate incubated for 5 mins followed by substrate addition and measured after 5 mins by spectrophotometric based Ellman's method

[7] = system: Rattus norvegicus; assay: Antiinflammatory activity against Wistar (Krf:WI) rat assessed as reduction in carragenan-induced paw edema at 30 mg/kg treated prior to carrageenan challenge and measured after 1 hr by plethysmometry relative to control; type: functional
[8] = system: Rattus norvegicus; assay: Antiinflammatory activity against Wistar (Krf:WI) rat assessed as reduction in carragenan-induced paw edema at 22.5 mg/kg treated prior to carrageenan challenge and measured after 3 hrs by plethysmometry relative to control; type: functional
[9] = system: Rattus norvegicus; assay: Antiinflammatory activity against Wistar (Krf:WI) rat assessed as reduction in carragenan-induced paw edema at 30 mg/kg treated prior to carrageenan challenge and measured after 3 hrs by plethysmometry relative to control; type: functional
[10] = molecular target: T1, MAO-A (Homo sapiens, UniProt P21397); assay: Inhibition of recombinant human MAO-A expressed in baculovirus infected BTI cells at 10 uM using p-tyramine as substrate by fluorometric assay relative to control; settings: probe p-tyramine
T1 sequence (P21397 whole entry): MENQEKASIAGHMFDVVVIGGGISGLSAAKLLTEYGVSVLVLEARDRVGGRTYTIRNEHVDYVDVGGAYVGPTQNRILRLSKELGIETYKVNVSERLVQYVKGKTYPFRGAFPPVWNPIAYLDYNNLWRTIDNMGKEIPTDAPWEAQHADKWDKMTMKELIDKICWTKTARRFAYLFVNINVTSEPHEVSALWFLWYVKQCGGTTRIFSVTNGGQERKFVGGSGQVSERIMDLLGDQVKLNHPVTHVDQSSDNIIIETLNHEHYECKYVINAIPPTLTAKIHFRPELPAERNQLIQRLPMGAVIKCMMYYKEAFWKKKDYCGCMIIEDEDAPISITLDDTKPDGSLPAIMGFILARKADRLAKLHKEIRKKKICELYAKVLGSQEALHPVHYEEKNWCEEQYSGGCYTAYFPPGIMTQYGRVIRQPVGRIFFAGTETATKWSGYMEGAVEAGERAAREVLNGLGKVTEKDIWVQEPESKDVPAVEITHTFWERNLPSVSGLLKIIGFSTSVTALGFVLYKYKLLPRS

[11] = system: Mus musculus; assay: Antiallodynic activity in oxaliplatin-induced peripheral neuropathy pain CD-1 mouse model assessed as inhibition of late-phase tactile allodynia by measuring pain sensitivity threshold at 22.5 mg/kg administered with compound intraperitoneally at 7 days after oxaliplatin stimulation and measured after 30 mins by von Frey test (reference value: 65.3%); type: functional; design: scale not given: the % may be the effect or the level left; settings: 0.5 h
[12] = molecular target: Cholinesterase (Homo sapiens, UniProt P06276)
Sequence of Cholinesterase (Homo sapiens, UniProt P06276) (P06276 whole entry): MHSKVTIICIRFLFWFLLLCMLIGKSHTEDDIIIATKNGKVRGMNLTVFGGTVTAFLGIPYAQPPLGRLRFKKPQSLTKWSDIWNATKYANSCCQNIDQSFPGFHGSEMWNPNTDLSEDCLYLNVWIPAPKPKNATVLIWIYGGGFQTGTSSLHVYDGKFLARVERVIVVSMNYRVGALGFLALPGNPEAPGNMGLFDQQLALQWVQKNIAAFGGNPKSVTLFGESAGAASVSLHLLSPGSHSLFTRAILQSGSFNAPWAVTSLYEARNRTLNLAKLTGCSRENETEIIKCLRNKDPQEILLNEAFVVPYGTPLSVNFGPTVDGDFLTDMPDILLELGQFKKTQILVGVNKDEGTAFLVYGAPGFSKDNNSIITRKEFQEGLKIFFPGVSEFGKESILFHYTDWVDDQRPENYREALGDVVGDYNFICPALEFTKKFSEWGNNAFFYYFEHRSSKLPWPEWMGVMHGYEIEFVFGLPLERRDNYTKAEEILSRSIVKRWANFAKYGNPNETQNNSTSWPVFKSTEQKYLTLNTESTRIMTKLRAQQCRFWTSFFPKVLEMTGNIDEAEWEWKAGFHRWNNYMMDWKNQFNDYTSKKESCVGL
Description: Inhibition of human BuChE by spectrophotometric based Ellman's method

[13] = system: Rattus norvegicus; assay: Memory enhancement effect in dizocilpine-induced Wistar (Krf:WI) rat model of amnesia assessed as decrease in transfer latency time at 1.25 to 5 mg/kg, ip measured after 30 to 45 mins by elevated plus maze test; type: functional, organism-based; settings: dose 1.25-5 mg/kg, time 30-45 min
[14] = system: Mus musculus; assay: Antiallodynic activity in oxaliplatin-induced peripheral neuropathy pain CD-1 mouse model assessed as inhibition of early-phase tactile allodynia by measuring pain sensitivity threshold at 22.5 mg/kg administered with compound intraperitoneally at 3 hrs after oxaliplatin stimulation and measured after 30 mins by von Frey test (reference value: 61.2 %); type: functional; design: scale not given: the % may be the effect or the level left; settings: 0.5 h
[15] = system: Mus musculus; assay: Analgesic activity in formalin-induced nociception CD-1 mouse model assessed as reduction in pain behaviour by measuring less licking of formalin injected hind paw compound administered intraperitoneally prior to formalin induction and measured during late phase (15 to 30 mins after formalin injection) by formalin test; type: functional; settings: CD-1, ip, time 15-30 min
[16] = system: Mus musculus; assay: Antiallodynic activity in oxaliplatin-induced peripheral neuropathy pain CD-1 mouse model assessed as inhibition of early-phase tactile allodynia by measuring pain sensitivity threshold at 15 mg/kg administered with compound intraperitoneally at 3 hrs after oxaliplatin stimulation and measured after 30 mins by von Frey test (reference value: 61.2 %); type: functional; design: scale not given: the % may be the effect or the level left; settings: 0.5 h
[17] = system: Rattus norvegicus; assay: Analgesic activity in Wistar (Krf:WI) rat assessed as inhibition of carrageenan-induced mechanical inflammatory hyperalgesia by measuring paw withdrawl threshold at 22.5 mg/kg treated prior to carrageenan challenge and measured upto 24 hrs (reference value: 88.4 to 90.9 %); type: functional; design: scale not given: the % may be the effect or the level left; settings: time hrs <=24
[18] = in vitro; settings: PAMPA, pH 7.4
Description: Permeability of compound in PBS buffer assessed as permeability coefficient at pH 7.4 at 200 uM incubated for 5 hrs by PAMPA based LC-MS analysis

[19] = system: Rattus norvegicus; assay: Antiinflammatory activity against Wistar (Krf:WI) rat assessed as reduction in carragenan-induced paw edema at 22.5 mg/kg treated prior to carrageenan challenge and measured after 24 hrs by plethysmometry relative to control; type: functional
[20] = molecular target: T1, MAO-A; assay: in vitro; settings: probe p-tyramine
Description: Inhibition of recombinant human MAO-A expressed in baculovirus infected BTI cells at 1 uM using p-tyramine as substrate by fluorometric assay relative to control

[21] = system: Rattus norvegicus; assay: Antiinflammatory activity against Wistar (Krf:WI) rat assessed as reduction in carragenan-induced paw edema at 22.5 mg/kg treated prior to carrageenan challenge and measured after 1 hr by plethysmometry relative to control; type: functional
[22] = molecular target: Histamine H3 receptor (Homo sapiens, UniProt Q9Y5N1); assay: biochemical
Sequence of Histamine H3 receptor (Q9Y5N1 whole entry): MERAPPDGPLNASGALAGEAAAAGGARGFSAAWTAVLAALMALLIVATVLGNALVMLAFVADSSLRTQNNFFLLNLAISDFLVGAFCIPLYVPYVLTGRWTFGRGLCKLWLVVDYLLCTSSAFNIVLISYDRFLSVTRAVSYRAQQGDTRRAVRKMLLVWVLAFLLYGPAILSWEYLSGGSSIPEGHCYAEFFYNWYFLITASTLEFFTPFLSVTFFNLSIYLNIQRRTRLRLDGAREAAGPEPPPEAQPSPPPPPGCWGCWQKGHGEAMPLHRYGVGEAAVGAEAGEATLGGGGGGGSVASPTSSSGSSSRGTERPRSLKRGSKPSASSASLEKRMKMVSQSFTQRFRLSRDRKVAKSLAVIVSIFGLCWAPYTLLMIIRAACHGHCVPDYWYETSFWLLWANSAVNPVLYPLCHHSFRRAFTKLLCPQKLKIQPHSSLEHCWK
Description: Displacement of [3H]N-alpha-methylhistamine from recombinant human histamine H3 receptor expressed in CHO-K1 cells by microbeta scintillation analysis

[23] = molecular target: Cholinesterase (Equus caballus) (UniProt P81908); assay: Non-competitive inhibition of equine serum BChE using BTCI as substrate incubated for 5 mins followed by substrate addition and measured after 5 mins by spectrophotometric based Cornish-Bowden plot analysis; type: cell-free; settings: time 10.0 min
Sequence of Cholinesterase (Equus caballus) (P81908 whole entry): as the sequence (P81908 whole entry) above

[24] = molecular target: Acetylcholinesterase (Electrophorus electricus) (UniProt O42275); assay: Non-competitive inhibition of Electric eel AChE using ATCI as substrate incubated for 5 mins followed by substrate addition and measured after 5 mins by spectrophotometric based Lineweaver-Burk plot analysis; settings: time 10.0 min
Sequence of Acetylcholinesterase (Electrophorus electricus) (O42275 24-633 limits assumed): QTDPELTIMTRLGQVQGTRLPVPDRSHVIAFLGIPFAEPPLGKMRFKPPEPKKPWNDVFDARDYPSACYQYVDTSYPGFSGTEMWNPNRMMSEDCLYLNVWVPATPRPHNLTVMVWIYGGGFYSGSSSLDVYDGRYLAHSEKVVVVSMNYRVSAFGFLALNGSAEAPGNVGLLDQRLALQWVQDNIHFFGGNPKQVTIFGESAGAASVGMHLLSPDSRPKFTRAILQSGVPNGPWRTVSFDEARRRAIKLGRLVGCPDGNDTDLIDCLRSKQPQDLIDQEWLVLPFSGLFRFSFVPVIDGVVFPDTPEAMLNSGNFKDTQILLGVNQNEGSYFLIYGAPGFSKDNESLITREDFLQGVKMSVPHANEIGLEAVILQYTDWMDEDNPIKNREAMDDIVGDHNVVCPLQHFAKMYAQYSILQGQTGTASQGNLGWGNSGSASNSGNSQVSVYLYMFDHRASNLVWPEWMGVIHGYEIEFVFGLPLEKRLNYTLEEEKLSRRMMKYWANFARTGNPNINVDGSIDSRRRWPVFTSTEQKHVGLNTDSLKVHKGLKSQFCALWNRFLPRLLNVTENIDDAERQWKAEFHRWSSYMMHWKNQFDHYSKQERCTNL

[25] = system: Rattus norvegicus; assay: Analgesic activity in carragenan-induced thermal hyperalgesia model of Wistar (Krf:WI) rat assessed as latency of nociceptive response for radiant heat stimulation at 30 mg/kg treated prior to carrageenan challenge and measured after 3 hrs (reference value: 50.3%); type: functional
[26] = system: Rattus norvegicus; assay: Analgesic activity in carragenan-induced thermal hyperalgesia model of Wistar (Krf:WI) rat assessed as latency of nociceptive response for radiant heat stimulation at 30 mg/kg treated prior to carrageenan challenge and measured after 1 hr (reference value: 71.4%); type: functional

With `O=c1c2ccccc2oc2ccc(OCCCCCN3CCCCCC3)cc12` the inhibition in vivo at 30 mg/kg [1] was 57.8%, the pIC50 [2] was 6.06 and the inhibition in vivo at 22.5 mg/kg [3] was 19.4%. The pIC50 [4] was 6.41, the Activity [5] was “Dose-dependent effect” and the pIC50 [6] was 6.74. It also gave an inhibition in vivo at 30 mg/kg [7] of 77.9%, an inhibition in vivo at 22.5 mg/kg [8] of 26.5% and an inhibition in vivo at 30 mg/kg [9] of 52.1%. For the same compound, the inhibition at 10 µM [10] was less than 50%, the Activity [11] was 88.5% and the pIC50 [12] was 5.89. The Activity [13] was “Active”, the Activity [14] was 90.6% and the ED50 [15] was 11.3 mg/kg. The Activity [16] was 88.5%, the Activity [17] was 94.6% and the Papp at 5 h, 200 µM [18] was 5.6 ×10⁻⁶ cm/s. For the same compound, the inhibition in vivo at 22.5 mg/kg [19] was 22.4%, the inhibition at 1 µM [20] was 4% and the inhibition in vivo at 22.5 mg/kg [21] was 36.1%. The pKi [22] was 6.77, the inhibition [23] was “Active” and the inhibition [24] was “Active”. For the same compound, the Activity [25] was 96% and the Activity [26] was 130%.
